From ChEMBL document CHEMBL3352287, “Cytotoxic resin glycosides from Ipomoea aquatica and their effects on intracellular Ca2+ concentrations” (J Nat Prod, 2014)
Activity calls are given as the source filed them. No cut-off for these calls is given here.

What was measured:
[1] = Cytotoxicity against human MG63 cells after 48 hrs by MTT assay; format: functional, cell-based; settings: MG-63, 48 h
[2] = tested on: MCF7; test: Cytotoxicity against human MCF7 cells after 48 hrs by MTT assay; format: functional, cell-based; settings: MCF7, 48 h
[3] = tested on: HepG2; test: Cytotoxicity against human HepG2 cells after 48 hrs by MTT assay; format: functional, cell-based; settings: HepG2, 48 h
[4] = tested on: SMMC-7721; test: Cytotoxicity against human SMMC7721 cells after 48 hrs by MTT assay; format: functional, cell-based; settings: SMMC-7721, 48 h
[5] = tested on: U2OS; test: Cytotoxicity against human U2OS cells after 48 hrs by MTT assay; format: functional, cell-based
[6] = tested on: HepG2; test: Increase in intracellular Ca2+ level in human HepG2 cells assessed as increase in fluorescence intensity at 30 uM after 6 hrs by Fluo-3 AM -based fluorescence assay relative to control; format: functional
[7] = Cytotoxicity against human MCF7/ADR cells after 48 hrs by MTT assay; format: functional, cell-based; settings: NCI/ADR-RES
[8] = tested on: NCI/ADR-RES; test: Cytotoxicity against human MCF7/ADR cells at 10 uM after 48 hrs by MTT assay; format: functional, cell-based
[9] = tested on: HepG2; test: Cytotoxicity against human HepG2 cells at 10 uM after 48 hrs by MTT assay; format: functional, cell-based
[10] = tested on: SMMC-7721; test: Cytotoxicity against human SMMC7721 cells at 10 uM after 48 hrs by MTT assay; format: functional, cell-based
[11] = tested on: U2OS; test: Cytotoxicity against human U2OS cells at 10 uM after 48 hrs by MTT assay; format: functional, cell-based
[12] = tested on: MG-63; test: Cytotoxicity against human MG63 cells at 10 uM after 48 hrs by MTT assay; format: functional, cell-based
[13] = tested on: MCF7; test: Cytotoxicity against human MCF7 cells at 10 uM after 48 hrs by MTT assay; format: functional, cell-based
[14] = tested on: HepG2; test: Cell cycle arrest in human HepG2 cells assessed as increase in subG1 phase cells at 8 uM after 48 hrs using propidium iodide by flow cytometry; format: functional, cell-based
[15] = tested on: HepG2; test: Cell cycle arrest in human HepG2 cells assessed as increase in G0/G1 phase cells after 48 hrs using propidium iodide by flow cytometry; format: functional, cell-based

## COc1cccc2c1C(=O)c1c(O)c3c(c(O)c1C2=O)C[C@@](O)(C(=O)CO)C[C@@H]3O[C@H]1C[C@H](N)[C@H](O)[C@H](C)O1 [DOXORUBICIN]
[1]
  IC50: 0.74 µM
[2]
  IC50: 0.46 µM
[3]
  IC50: 0.36 µM
[4]
  IC50: 1.1 µM
[5]
  IC50: 0.65 µM

## CCCCCCCC(=O)O[C@@H]1[C@@H](O)[C@@H](O)[C@H](O[C@@H]2[C@@H](O[C@@H]3O[C@H](CO)[C@@H](O)[C@H](O)[C@H]3O)[C@@H](OC(=O)CCCCCCC)[C@H](O[C@@H]3[C@H]4OC(=O)CCCCCCCCC[C@H](CCCCC)O[C@@H]5O[C@H](C)[C@H](O)[C@H](O)[C@H]5O[C@H](O[C@H]3C)[C@@H]4O)O[C@H]2C)O[C@H]1C
[1]; read-out: IC50
  IC50: 5.4 µM
[6]
  Activity: >200%
[2]
  IC50: 7.4 µM
[7]
  IC50: > 10 µM
[3]
  IC50: 8.5 µM
[4]
  IC50: > 10 µM
[5]
  IC50: > 10 µM

## CCCCCCCCCC(=O)O[C@H]1[C@H](O[C@@H]2[C@H]3OC(=O)CCCCCCCCC[C@H](CCCCC)O[C@@H]4O[C@H](C)[C@H](O)[C@H](O)[C@H]4O[C@H](O[C@H]2C)[C@@H]3O)O[C@@H](C)[C@H](O[C@@H]2O[C@@H](C)[C@H](OC(=O)CCCCCCC)[C@@H](O)[C@H]2O)[C@H]1O[C@@H]1O[C@@H](C)[C@H](O)[C@@H](O)[C@H]1O
[1]; read-out: IC50
  IC50: 6 µM
[6]
  Activity: Active
[2]
  IC50: 9.8 µM
[7]
  IC50: > 10 µM
[3]
  IC50: 4.9 µM
[4]
  IC50: > 10 µM
[5]
  IC50: > 10 µM

## CCCCCCCC(=O)O[C@@H]1[C@@H](O)[C@H](C)O[C@@H](O[C@@H]2[C@@H](O[C@@H]3O[C@H](CO)[C@@H](O)[C@H](O)[C@H]3O)[C@@H](OC(=O)CCCCCCC)[C@H](O[C@@H]3[C@H]4OC(=O)CCCCCCCCC[C@H](CCCCC)O[C@@H]5O[C@H](C)[C@H](O)[C@H](O)[C@H]5O[C@H](O[C@H]3C)[C@@H]4O)O[C@H]2C)[C@@H]1O
[8]
  Activity: inactive
[9]
  Activity: inactive
[10]
  Activity: inactive
[11]
  Activity: inactive
[12]
  Activity: inactive
[13]
  Activity: inactive

## CCCCCCCC(=O)O[C@@H]1[C@@H](O)[C@@H](O)[C@H](O[C@@H]2[C@@H](O[C@@H]3O[C@@H](C)[C@H](O)[C@@H](O)[C@H]3O)[C@@H](OC(=O)CCCCC)[C@H](O[C@@H]3[C@H]4OC(=O)CCCCCCCCC[C@H](CCCCC)O[C@@H]5O[C@H](C)[C@H](O)[C@H](O)[C@H]5O[C@H](O[C@H]3C)[C@@H]4O)O[C@H]2C)O[C@H]1C
[1]; read-out: IC50
  IC50: 5.3 µM
[6]
  Activity: Active
[2]
  IC50: 4.2 µM
[7]
  IC50: > 10 µM
[3]
  IC50: 2.4 µM
[14]
  Activity: Active
[4]
  IC50: 6.3 µM
[5]
  IC50: 4.5 µM
[15]
  Activity: Dose-dependent effect

## CCCCCCCC(=O)O[C@@H]1[C@@H](O)[C@@H](O)[C@H](O[C@@H]2[C@@H](O[C@@H]3O[C@@H](C)[C@H](O)[C@@H](O)[C@H]3O)[C@@H](OC(=O)CCCCCCC)[C@H](O[C@@H]3[C@H]4OC(=O)CCCCCCCCC[C@H](CCCCC)O[C@@H]5O[C@H](C)[C@H](O)[C@H](O)[C@H]5O[C@H](O[C@H]3C)[C@@H]4O)O[C@H]2C)O[C@H]1C
[1]; read-out: IC50
  IC50: 3.7 µM
[6]
  Activity: Active
[2]
  IC50: 5 µM
[7]
  IC50: > 10 µM
[3]
  IC50: 5.2 µM
[4]
  IC50: 9 µM
[5]
  IC50: 9.6 µM

## CCCCCCCC(=O)O[C@@H]1[C@@H](O)[C@@H](O)[C@H](O[C@@H]2[C@@H](O[C@@H]3O[C@@H](C)[C@H](O)[C@@H](O)[C@H]3O)[C@@H](OC(=O)[C@@H](C)CC)[C@H](O[C@@H]3[C@H]4OC(=O)CCCCCCCCC[C@H](CCCCC)O[C@@H]5O[C@H](C)[C@H](O)[C@H](O)[C@H]5O[C@H](O[C@H]3C)[C@@H]4O)O[C@H]2C)O[C@H]1C
[1]; read-out: IC50
  IC50: 7.7 µM
[6]
  Activity: Active
[2]
  IC50: 4.1 µM
[7]
  IC50: > 10 µM
[3]
  IC50: 3.7 µM
[4]
  IC50: 9.5 µM
[5]
  IC50: 9.4 µM
